The text below walks through data of ChEMBL document CHEMBL1909046, “DrugMatrix in vitro pharmacology data”.

The structures appear in SMILES notation.

In data set [1] the target is T1, Alpha-1B adrenergic receptor (Rattus norvegicus, UniProt P15823).
T1 sequence (P15823 whole entry): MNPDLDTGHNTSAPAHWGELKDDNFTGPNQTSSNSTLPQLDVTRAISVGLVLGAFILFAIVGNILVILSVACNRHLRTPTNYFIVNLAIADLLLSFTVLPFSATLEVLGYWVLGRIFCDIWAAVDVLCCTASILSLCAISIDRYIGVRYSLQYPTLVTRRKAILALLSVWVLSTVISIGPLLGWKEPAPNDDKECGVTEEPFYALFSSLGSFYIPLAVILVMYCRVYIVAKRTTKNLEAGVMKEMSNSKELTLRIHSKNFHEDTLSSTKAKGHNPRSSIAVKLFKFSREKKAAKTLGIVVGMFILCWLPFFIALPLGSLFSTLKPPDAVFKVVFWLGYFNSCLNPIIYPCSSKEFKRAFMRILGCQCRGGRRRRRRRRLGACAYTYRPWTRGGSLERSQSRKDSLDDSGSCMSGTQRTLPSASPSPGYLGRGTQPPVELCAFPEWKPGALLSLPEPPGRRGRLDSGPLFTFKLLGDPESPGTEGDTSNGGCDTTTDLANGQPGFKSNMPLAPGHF
Briefly: DRUGMATRIX: Alpha-1B adrenergic receptor radioligand binding (ligand: prazosin). As to conditions: Not Active = under 50% inhibition at 10 µM. The data set is classed as cell membranes, Wistar, Liver, Membrane.

The nature of data set [2]: DRUGMATRIX: Atrial Natriuretic Factor (ANF) radioligand binding (ligand: [125I] ANF (rat)). The note with it: Not Active = under 50% inhibition at 10 µM. The data set is classed as cell membranes, Cavia porcellus, Dunkin-Hartley, Adrenal gland, Membrane.
Data set [3] can be described thus: DRUGMATRIX: Sigma2 radioligand binding (ligand: [3H] Ifenprodil). In kind it is cell membranes, Rattus norvegicus, Wistar, Brain, Membrane. The note with it: Not Active = under 50% inhibition at 10 µM.
Data set [4] is described as follows: DRUGMATRIX: Calcium Channel Type L, Phenylalkylamine radioligand binding (ligand: [3H] (-)-Desmethoxyverapamil (D-888)). The data set is classed as cell membranes, Rattus norvegicus, Wistar, Brain, Membrane. The note with it: Not Active = under 50% inhibition at 10 µM.
Data set [5] is described as follows: DRUGMATRIX: GABAA, Muscimol, Central radioligand binding (ligand: [3H] Muscimol). The data set is classed as cell membranes, Rattus norvegicus, Wistar, Brain, Membrane. The note with it: Not Active = under 50% inhibition at 10 µM.
A short description of data set [6]: DRUGMATRIX: Glutamate, NMDA, Phencyclidine radioligand binding (ligand: [3H] TCP). In kind it is cell membranes, Rattus norvegicus, Wistar, Cerebral cortex, Membrane. The note with it: Not Active = under 50% inhibition at 10 µM.
The nature of data set [7]: DRUGMATRIX: Phosphodiesterase PDE4 enzyme inhibition (substrate: [3H]cAMP + cAMP). The note with it: u-937; Not Active = under 50% inhibition at 10 µM.
For the next data set, the target named is Cytochrome P450 2D6 (Homo sapiens, UniProt P10635). As to conditions: bti-tn-5b1-4. Further: in other assays of this panel Not Active means under 50% inhibition at 10 µM.
Sequence of Cytochrome P450 2D6 (P10635 whole entry): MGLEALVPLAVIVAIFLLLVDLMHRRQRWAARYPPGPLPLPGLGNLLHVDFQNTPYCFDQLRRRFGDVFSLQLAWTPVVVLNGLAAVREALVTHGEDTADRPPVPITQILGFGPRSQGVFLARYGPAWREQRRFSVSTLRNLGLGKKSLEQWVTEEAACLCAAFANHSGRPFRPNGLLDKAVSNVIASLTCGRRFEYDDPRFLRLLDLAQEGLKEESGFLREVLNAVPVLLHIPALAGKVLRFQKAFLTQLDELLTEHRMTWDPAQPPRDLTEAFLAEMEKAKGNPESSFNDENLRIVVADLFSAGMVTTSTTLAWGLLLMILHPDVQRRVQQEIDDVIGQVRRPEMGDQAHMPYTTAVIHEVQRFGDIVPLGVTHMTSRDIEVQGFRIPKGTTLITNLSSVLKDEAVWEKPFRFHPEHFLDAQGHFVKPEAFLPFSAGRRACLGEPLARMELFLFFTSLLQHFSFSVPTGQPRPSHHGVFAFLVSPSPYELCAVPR

The term IC50 denotes the concentration that gives 50% inhibition. One may read the Ki as the equilibrium dissociation constant of an inhibitor or competing ligand from its target. As to `CCCCC(=O)N(Cc1ccc(-c2ccccc2-c2nnn[nH]2)cc1)[C@H](C(=O)O)C(C)C`, the IC50 result in data set [1], in data set [2], in data set [3], in data set [4], in data set [5] and in data set [6] was “Not Active” throughout. The IC50 result (in data set [7]; at Cytochrome P450 2D6) was “Not Active” throughout. The Ki entry in data set [2], in data set [3], in data set [4], in data set [5], in data set [6] and in data set [7] was “Not Active” in each case. Besides, the Ki entry at Cytochrome P450 2D6 is “Not Active”.
For the compound `O=C(O)COc1ccc(C(=O)c2cccs2)c(Cl)c1Cl`, the IC50 result in data set [1], in data set [2], in data set [3], in data set [4], in data set [5] and in data set [6] was “Not Active” in each case. The IC50 entry (in data set [7]; on Cytochrome P450 2D6) was “Not Active” each time. The Ki result in data set [2], in data set [3], in data set [4], in data set [5], in data set [6] and in data set [7] was “Not Active” throughout. Further, on Cytochrome P450 2D6, the Ki result is given as “Not Active”.
For `CN1[C@@H]2CC[C@H]1C[C@@H](OC(c1ccccc1)c1ccccc1)C2` [BENZTROPINE], on Cytochrome P450 2D6, the IC50 entry was “Not Active” and the Ki entry is “Not Active”.
`C[C@@](Cc1ccc(O)c(O)c1)(NN)C(=O)O.O` [CARBIDOPA]: the IC50 result in data set [1], in data set [2], in data set [3], in data set [4], in data set [5] and in data set [6] was “Not Active” throughout. Further, the IC50 result (in data set [7]; at Cytochrome P450 2D6) was “Not Active” throughout. The Ki entry in data set [2], in data set [3], in data set [4], in data set [5], in data set [6] and in data set [7] was “Not Active” each time. Also, the Ki entry at Cytochrome P450 2D6 was “Not Active”.
In the case of `CN1CCN(C2=Nc3cc(Cl)ccc3Nc3ccccc32)CC1` [CLOZAPINE], on Cytochrome P450 2D6, the IC50 result is recorded as “Not Active” and the Ki entry is “Not Active”.
For the compound `CC(C)NC[C@@H](O)COc1cccc2ccccc12` [DEXPROPRANOLOL], at Cytochrome P450 2D6, the IC50 entry was “Not Active” and the Ki result was “Not Active”.
Turning to `CC(C)NC[C@H](O)COc1cccc2ccccc12` [LEVOPROPRANOLOL], on Cytochrome P450 2D6, the IC50 result is given as “Not Active” and the Ki entry is “Not Active”.
Consider `O=C(O)CCCCC1CCSS1` (stereo not drawn) [LIPOIC ACID, ALPHA], for which the IC50 entry in data set [1], in data set [2], in data set [3], in data set [4], in data set [5] and in data set [6] was “Not Active” each time. Moreover, the IC50 entry (in data set [7]; against Cytochrome P450 2D6) was “Not Active” throughout. Also, the Ki result in data set [2], in data set [3], in data set [4], in data set [5], in data set [6] and in data set [7] was “Not Active” each time. The Ki result at Cytochrome P450 2D6 is reported as “Not Active”.
For `C[C@]12C=CC(=O)C=C1CC[C@@H]1[C@@H]2C(=O)C[C@@]2(C)[C@H]1CC[C@]2(O)C(=O)CO` [PREDNISONE], the IC50 result in data set [1], in data set [2], in data set [3], in data set [4], in data set [5] and in data set [6] was “Not Active” each time. Besides, the IC50 entry in data set [7] is given as “Not Active”. Moreover, the Ki result in data set [2], in data set [3], in data set [4], in data set [5], in data set [6] and in data set [7] was “Not Active” each time.
As for `OCCOCCN1CCN(C2=Nc3ccccc3Sc3ccccc32)CC1` [QUETIAPINE], on Cytochrome P450 2D6, the IC50 result was “Not Active” and the Ki entry is reported as “Not Active”.
For the compound `COC(=O)[C@H]1[C@H]2C[C@@H]3c4[nH]c5cc(OC)ccc5c4CCN3C[C@H]2C[C@@H](OC(=O)c2cc(OC)c(OC)c(OC)c2)[C@@H]1OC` [RESERPINE], the IC50 entry in data set [1] is “Not Active”; in data set [2] it was “Not Active”; in data set [3] it was “Not Active”; in data set [4] (read-out: IC50), 2050 nM; in data set [5], “Not Active”; in data set [6] it was “Not Active”. Further, the IC50 entry (in data set [7]; against Cytochrome P450 2D6) was “Not Active” each time. The inhibition constant (Ki) result in data set [2] is “Not Active”; in data set [3], “Not Active”; in data set [4] (read-out: Ki) it was 1990 nM; in data set [5], “Not Active”; in data set [6] it was “Not Active”; in data set [7] it was “Not Active”. Moreover, on Cytochrome P450 2D6, the Ki result is reported as “Not Active”.
As to `O=C(O)c1ccccc1O` [SALICYLIC ACID], the IC50 result in data set [1], in data set [2], in data set [3], in data set [4], in data set [5] and in data set [6] was “Not Active” in each case. For the same compound, the IC50 entry (in data set [7]; against Cytochrome P450 2D6) was “Not Active” each time. Also, the Ki result in data set [2], in data set [3], in data set [4], in data set [5], in data set [6] and in data set [7] was “Not Active” throughout. The Ki result on Cytochrome P450 2D6 is “Not Active”.
Regarding `CC1CCC(NC(=O)N(CCCl)N=O)CC1` (centres undefined) [SEMUSTINE], the IC50 entry in data set [1], in data set [2], in data set [3], in data set [4], in data set [5] and in data set [6] was “Not Active” throughout. Moreover, the IC50 entry (in data set [7]; against Cytochrome P450 2D6) was “Not Active” throughout. Moreover, the Ki result in data set [2], in data set [3], in data set [4], in data set [5], in data set [6] and in data set [7] was “Not Active” in each case. In addition, at Cytochrome P450 2D6, the Ki entry was “Not Active”.
With `O=C1C[C@@H]2OCC=C3CN4CC[C@]56c7ccccc7N1[C@H]5[C@H]2[C@H]3C[C@H]46` [STRYCHNINE], the IC50 result in data set [1], in data set [2], in data set [3], in data set [4], in data set [5] and in data set [6] was “Not Active” each time. In addition, the half-inhibitory concentration (IC50) result (in data set [7]; on Cytochrome P450 2D6) was “Not Active” each time. In addition, the Ki result in data set [2], in data set [3], in data set [4], in data set [5], in data set [6] and in data set [7] was “Not Active” each time. Moreover, the Ki result on Cytochrome P450 2D6 is on record as “Not Active”.
In the case of `C[N+](C)(C)CCOC(=O)CCC(=O)OCC[N+](C)(C)C.[Cl-].[Cl-]` [SUCCINYLCHOLINE CHLORIDE], the IC50 result in data set [1], in data set [2], in data set [3], in data set [4], in data set [5] and in data set [6] was “Not Active” each time. In addition, the IC50 entry (in data set [7]; against Cytochrome P450 2D6) was “Not Active” each time. The Ki entry in data set [2], in data set [3], in data set [4], in data set [5], in data set [6] and in data set [7] was “Not Active” in each case. Further, at Cytochrome P450 2D6, the Ki entry is listed as “Not Active”.
Consider `CCCCCCCCNC(C)C(O)c1ccc(SC(C)C)cc1` (centres undefined) [SULOCTIDIL], for which the IC50 entry in data set [1] was “Not Active”; in data set [3] (read-out: IC50) it was 21.4 nM; in data set [4] (read-out: IC50), 525 nM; in data set [5] it was “Not Active”; in data set [6], “Not Active”; in data set [7] it was “Not Active”. In addition, on Cytochrome P450 2D6, the IC50 result is reported as “Not Active”. For the same compound, the Ki in data set [3] (read-out: Ki) is 13.2 nM; in data set [4] (read-out: Ki), 510 nM; in data set [5], “Not Active”; in data set [6], “Not Active”; in data set [7], “Not Active”; on Cytochrome P450 2D6 it was “Not Active”.
`CN1CCN(CCCN2c3ccccc3Sc3ccc(C(F)(F)F)cc32)CC1` [TRIFLUOPERAZINE]: the IC50 entry in data set [1], in data set [2], in data set [3], in data set [4], in data set [5] and in data set [6] was “Not Active” each time. In addition, the IC50 result in data set [7] is “Not Active”. Besides, the Ki entry in data set [2], in data set [3], in data set [4], in data set [5], in data set [6] and in data set [7] was “Not Active” each time.
